The values that follow come from patent US20070014721A1, “Hydrazide conjugates as imaging agents” (priority 2005, published 2007).

Series [1] concerns Rabbit plaque aorta or normal rabbit aorta. Description: Ex vivo blood vessel binding assay. The following applies: radiolabeled compound incubated with rabbit aorta (0.5 cm) in phosphate buffered saline for 2 hours at 37° C; bound compound as percentage of the incubated compound. Also noted: species or system New Zealand white rabbits. From the text:
Normal aorta was obtained from New Zealand white rabbits. Aorta bearing atherosclerotic plaque was obtained from New Zealand white rabbits balloon stripped along the abdominal aorta and placed on a high fat diet (0.5% cholesterol) for 16-22 weeks. Vascular injury was produced with a 3-F Fogarty catheter along the abdominal aorta and left iliofemoral artery. This procedure generates an accelerated complex lesion development with a lipid rich core covered by a fibrous cap in rabbits. Rabbit plaque aorta or normal rabbit aorta (0.5 cm) was incubated with 10 nCi of ^14C labeled compound or 1.5 μCi of ^99m Tc labeled compound or 0.135 μCi of ^111In labeled compound or 0.135 μCi of ^68Ga labeled compound or 0.135 µCi of ^153Gd labeled compound diluted in phosphate buffered saline (450 μL) for 2 hours at 37° C. The supernatant from this sample was collected and analyzed by HPLC to determine compound stability in presence of blood vessels. The blood vessel tissue was then washed with phosphate buffered saline (3×10 mL). Phosphate buffered saline (10 ml) was added to the tissue and incubated at 37° C. for 1 hour. The tissue was then washed with phosphate buffered saline (3×10 mL). The washed tissue was oxidized in a tissue oxidizer for C-14 labeled compounds. The counts in the oxidized tissue were determined on a beta counter. Blood vessels incubated with ^99m Tc labeled compound or ^111In labeled compound or ^68Ga labeled compound or ^153Gd labeled compound were counted on a gamma counter. The amount of compound bound to the tissue was determined as a percentage of the incubated compound. This was calculated using the following formula: [formula]

In series [2] the test system is aorta of apolipoprotein E (apoE) knockout mouse. The series is described as follows: In vivo ApoE mouse aorta uptake study. The following applies: 60 min postinjection; for Aorta (% ID/g): ApoE mouse on high-fat diet 37-41 weeks, tail vein bolus; for Aorta/Blood Ratio: ApoE mouse, calculated from the % ID/g data.
Experimental: Mice were fed a high-fat diet to accelerate plaque formation and compounds were tested in the mice between 37-41 weeks on diet. Test compounds were radiolabeled (^14C, ^99mTc, or ^111In as described above) and administered at 0.02-4.0 mCi/kg to anesthetized mice in a single, bolus injection via the tail vein. Blood samples were collected via the tail between 0-30 minutes postinjection for pharmacokinetic analysis and mice were euthanized by CO2 at 60 minutes for tissue harvesting. The aorta were flushed with saline through the left ventricle exiting via the femoral vein. The aorta were then removed from the heart to the renal bifurcation and additional tissue samples collected (blood, muscle, liver, kidney, heart, lung, spleen and innominate artery). All samples were weighed and assayed for radioactivity. Tissue uptake is expressed as percent of injected dose per gram of tissue (% ID/g). The aorta to blood ratios were calculated from the % ID/g data.

On to `CC(C)CC(NC(=O)OC(C)(C)C)C(=O)NNC(=O)NN` (stereo not drawn) [Example 124, Boc-d-Leu-NHNH—CO—NHNH2], for which the “Tissue Binding %” value in series [1] came to 5.85%.
On to `CC(C)C[C@@H](NC(=O)OC(C)(C)C)C(=O)NCC(=O)NCCCCN` [Example 140, Boc-d-Leu-Gly-NH-Butyl-NH2], for which, in series [2], the “Aorta (% ID/g)” value stood at 1.3 % ID/g and the “Aorta/Blood Ratio” value is given as 0.8. The “Tissue Binding %” value in series [1] is on record as 0.52%.
Turning to Boc-Aib-Ahxh-H [Example 130], the “Tissue Binding %” value in series [1] is 3.33%.
For Boc-L-d-Leu-Ahxh-H [Example 150], in series [2], the “Aorta (% ID/g)” value was 2.1 % ID/g and the “Aorta/Blood Ratio” value is 1.2. In series [1], the “Tissue Binding %” value stood at 5.36%.
Regarding “Boc-Leu-PABA-CO-d-Leu-Ahxh-H [Example 127]”, the “Tissue Binding %” value in series [1] was 24.22%.
On to Boc-cLeu-Ahxh-H [Example 133], for which, in series [2], the “Aorta (% ID/g)” value came to 5.7 % ID/g and the “Aorta/Blood Ratio” value is reported as 2.9. Besides, the “Tissue Binding %” value in series [1] stood at 9.10%.
Take Boc-d-Ala-Ahxh-H [Example 134]: in series [1], the “Tissue Binding %” value is 5.72%.
With “Boc-d-Aphe(ε-Leu(Boc))-Ahxh-H [Example 151]”, in series [2], the “Aorta (% ID/g)” value turned out to be 9.0 % ID/g and the “Aorta/Blood Ratio” value is 2.9. Moreover, the “Tissue Binding %” value in series [1] was determined as 26.92%.
Boc-d-Arg(Pmc)-Ahxh-H [Example 131]: the “Tissue Binding %” value in series [1] was 5.19%.
Take Boc-d-Glu(tBu)-Ahxh-H [Example 132]: the “Tissue Binding %” value in series [1] is given as 2.47%.
In the case of Boc-d-Leu-Ambh-H [Example 138], in series [2], the “Aorta (% ID/g)” value was 8.6 % ID/g and the “Aorta/Blood Ratio” value is given as 6.7. In addition, in series [1], the “Tissue Binding %” value was determined as 21.11%.
For Boc-d-Leu-Apah-H [Example 121], in series [2], the “Aorta (% ID/g)” value was determined as 9.3 % ID/g and the “Aorta/Blood Ratio” value was 4.6. In addition, in series [1], the “Tissue Binding %” value worked out at 30.55%.
With Boc-d-Leu-N(Me)-NH-Ahx-H [Example 141], the “Tissue Binding %” value in series [1] is listed as 0.75%.
As for “Boc-d-Leu-N(Me)-NH-Ahx-NH2 [Example 126]”, in series [2], the “Aorta (% ID/g)” value worked out at 1.3 % ID/g and the “Aorta/Blood Ratio” value is 0.6. The “Tissue Binding %” value in series [1] was 2.97%.
The matching figures for Boc-d-Leu-NHNH2 [Example 122]: 4.0 % ID/g, 3.0 and 13.99%.
As for “Boc-d-Leu-NHNH—CO-(PEG)4-NH2 [Example 123]”, in series [1], the “Tissue Binding %” value is recorded as 9.74%.
Regarding “Boc-d-Lys(e-Leu(Boc))-Ahxh-H [Example 136]”, the “Tissue Binding %” value in series [1] was found to be 9.15%.
For Boc-d-Phe-Ahxh-H [Example 129], in series [2], the “Aorta (% ID/g)” value worked out at 8.1 % ID/g and the “Aorta/Blood Ratio” value is listed as 3.3. In addition, in series [1], the “Tissue Binding %” value was 14.42%.
Boc-βLeu-Ahxh-H [Example 135]: the “Tissue Binding %” value in series [1] is recorded as 2.30%.
For H-Ahxh-d-Leu-Boc [Example 137], the “Tissue Binding %” value in series [1] is recorded as 1.43%.
Turning to H-Aic-Ambh-DTPA [Example 207], in series [2], the “Aorta (% ID/g)” value was determined as 3.8 % ID/g and the “Aorta/Blood Ratio” value is on record as 2.1. In addition, in series [1], the “Tissue Binding %” value came out at 5.26%.
Turning to H-Pro-Ahxh-DTPA [Example 163], in series [2], the “Aorta (% ID/g)” value came to 6.5 % ID/g and the “Aorta/Blood Ratio” value is 0.9. In addition, the “Tissue Binding %” value in series [1] is given as 2.61%.
Taken in the same sequence, the figures for H-cLeu-Ahxh-DTPA [Example 188] were 2.8 % ID/g, 2.2 and 3.91%.
H-cLeu-Ambh-DTPA [Example 195]: in series [2], the “Aorta (% ID/g)” value is 4.6 % ID/g and the “Aorta/Blood Ratio” value is given as 1.9. For the same compound, the “Tissue Binding %” value in series [1] came to 9.52%.
As to H-d-2-Nal-Ambh-DTPA [Example 212], in series [2], the “Aorta (% ID/g)” value was found to be 12.6 % ID/g and the “Aorta/Blood Ratio” value is on record as 10.8. In series [1], the “Tissue Binding %” value was determined as 18.78%.
With H-d-Aphe-Ahxh-DTPA [Example 193], in series [2], the “Aorta (% ID/g)” value turned out to be 6.2 % ID/g and the “Aorta/Blood Ratio” value is 3.0. Besides, the “Tissue Binding %” value in series [1] amounted to 8.69%.
Turning to H-d-Bip-Ahxh-DTPA [Example 175], in series [2], the “Aorta (% ID/g)” value is 7.9 % ID/g and the “Aorta/Blood Ratio” value is listed as 5.9. The “Tissue Binding %” value in series [1] is 32.09%.
On to H-d-Bip-NHNH-DTPA [Example 162], for which, in series [2], the “Aorta (% ID/g)” value came to 7.1 % ID/g and the “Aorta/Blood Ratio” value was 4.7. Besides, the “Tissue Binding %” value in series [1] worked out at 6.39%.
Turning to H-d-Cha-Ahxh-DTPA [Example 194], in series [2], the “Aorta (% ID/g)” value turned out to be 6.8 % ID/g and the “Aorta/Blood Ratio” value was 3.3. In addition, in series [1], the “Tissue Binding %” value is 16.33%.
H-d-Cha-Ambh-DTPA [Example 196]: in series [2], the “Aorta (% ID/g)” value stood at 9.8 % ID/g and the “Aorta/Blood Ratio” value was 7.8. Also, the “Tissue Binding %” value in series [1] amounted to 8.25%.
Turning to H-d-Cha-Apah-DTPA [Example 170], in series [2], the “Aorta (% ID/g)” value was 7.0 % ID/g and the “Aorta/Blood Ratio” value is recorded as 5.4. The “Tissue Binding %” value in series [1] is 7.55%.
As to H-d-Cha-Inph-DTPA [Example 197], the “Tissue Binding %” value in series [1] turned out to be 6.97%.
For H-d-Cys(Bzl)-Ahxh-DTPA [Example 167], in series [2], the “Aorta (% ID/g)” value was found to be 8.0 % ID/g and the “Aorta/Blood Ratio” value is given as 4.9. In addition, the “Tissue Binding %” value in series [1] was 9.74%.
As to H-d-Cys(Bzl)-Ambh-DTPA [Example 179], the “Tissue Binding %” value in series [1] is recorded as 9.67%.
On to H-d-Cys(Bzl)-Apah-DTPA [Example 173], for which, in series [2], the “Aorta (% ID/g)” value was 9.5 % ID/g and the “Aorta/Blood Ratio” value was 5.8. Besides, the “Tissue Binding %” value in series [1] was 13.82%.
For H-d-Cys(Bzl)-Apph-DTPA [Example 181], in series [2], the “Aorta (% ID/g)” value was 9.8 % ID/g and the “Aorta/Blood Ratio” value is 7.3. The “Tissue Binding %” value in series [1] was 13.91%.
With H-d-H2phe-Ambh-DTPA [Example 185], in series [2], the “Aorta (% ID/g)” value is on record as 11.2 % ID/g and the “Aorta/Blood Ratio” value is recorded as 8.1. Moreover, the “Tissue Binding %” value in series [1] came to 10.64%.
The matching figures for H-d-His-Ahxh-DTPA [Example 172]: 3.7 % ID/g, 1.2 and 4.22%.
As for H-d-Hphe-Ahxh-DTPA [Example 168], in series [2], the “Aorta (% ID/g)” value is reported as 7.5 % ID/g and the “Aorta/Blood Ratio” value was 5.8. Also, the “Tissue Binding %” value in series [1] came out at 9.17%.
Take H-d-Hphe-Ambh-Ahx-DTPA [Example 211]: in series [2], the “Aorta (% ID/g)” value came to 9.9 % ID/g and the “Aorta/Blood Ratio” value was 3.9. The “Tissue Binding %” value in series [1] is reported as 18.09%.
For H-d-Hphe-Apph-DTPA [Example 180], in series [2], the “Aorta (% ID/g)” value amounted to 8.3 % ID/g and the “Aorta/Blood Ratio” value is 13.2. Moreover, the “Tissue Binding %” value in series [1] is reported as 18.24%.
In the case of H-d-Hphe-Pheh-AEEA-DTPA [Example 213], in series [2], the “Aorta (% ID/g)” value is reported as 8.4 % ID/g and the “Aorta/Blood Ratio” value is reported as 9.8. Moreover, in series [1], the “Tissue Binding %” value is on record as 26.68%.
As to H-d-Hphe-mAmbh-DTPA [Example 210], in series [2], the “Aorta (% ID/g)” value was determined as 10.5 % ID/g and the “Aorta/Blood Ratio” value is reported as 11.2. The “Tissue Binding %” value in series [1] came to 13.13%.
Consider H-d-Leu-Apah-DOTA [Example 160], for which the “Tissue Binding %” value in series [1] was determined as 9.59%.
With H-d-Leu-NHNH-DTPA [Example 189], in series [2], the “Aorta (% ID/g)” value was 3.3 % ID/g and the “Aorta/Blood Ratio” value is listed as 1.0. Also, in series [1], the “Tissue Binding %” value amounted to 1.08%.
Regarding H-d-Leu-XInph-DTPA [Example 201], in series [2], the “Aorta (% ID/g)” value was determined as 4.3 % ID/g and the “Aorta/Blood Ratio” value is 2.1. The “Tissue Binding %” value in series [1] was 2.94%.
The matching figures for H-d-Nle-Ahxh-DTPA [Example 200]: 5.1 % ID/g, 2.2 and 2.72%.
Taken in the same sequence, the figures for H-d-Phe(4-NHBz)-Ambh-DTPA [Example 205] were 7.8 % ID/g, 6.3 and 8.83%.
The matching figures for H-d-Phe(CF3)-Apah-DTPA [Example 177]: 7.9 % ID/g, 8.7 and 13.53%.
With H-d-Phe(F5)-Ambh-DTPA [Example 204], in series [2], the “Aorta (% ID/g)” value is 6.7 % ID/g and the “Aorta/Blood Ratio” value was 5.3. Moreover, in series [1], the “Tissue Binding %” value was determined as 16.11%.
For H-d-Phe-Inph-DTPA [Example 199], the “Tissue Binding %” value in series [1] is recorded as 3.36%.
In the case of H-d-Pro-Ahxh-DTPA [Example 165], in series [1], the “Tissue Binding %” value was 5.51%.
In the case of H-d-Val-Ambh-DTPA [Example 198], in series [1], the “Tissue Binding %” value was 5.26%.
Still for that read-out and setting: in the case of N,N-Me2-d-Leu-Ahxh-H [Example 125] it was 4.63%.
